Biological target: KirBac1.1 (Burkholderia pseudomallei, UniProt P83698)
Assay: biochemical

Sequence of KirBac1.1 (P83698 1-333): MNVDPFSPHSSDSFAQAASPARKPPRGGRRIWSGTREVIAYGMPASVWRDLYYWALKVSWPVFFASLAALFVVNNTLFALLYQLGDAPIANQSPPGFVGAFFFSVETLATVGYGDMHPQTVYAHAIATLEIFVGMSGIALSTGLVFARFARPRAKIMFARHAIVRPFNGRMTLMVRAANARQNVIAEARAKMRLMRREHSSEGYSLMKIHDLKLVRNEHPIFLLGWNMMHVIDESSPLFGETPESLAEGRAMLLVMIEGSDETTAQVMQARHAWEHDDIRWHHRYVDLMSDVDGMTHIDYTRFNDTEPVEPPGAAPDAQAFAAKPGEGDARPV

With `NCCCNCCCCNCCCN` [spermine] the IC50 was 800 µM.

— article PMC2654083 (The Journal of General Physiology, 2009)
